Tests used:
[1] = target: T1, human recombinant MAG-lipase (Homo sapiens, UniProt Q99685); experiment: Hydrolysis with human recombinant monoacylglycerol lipase, with and without MAGL inhibitor; type: biochemical; details: FIG. 8
T1 construct: purchased Cayman 705192
T1 sequence (Q99685 1-303): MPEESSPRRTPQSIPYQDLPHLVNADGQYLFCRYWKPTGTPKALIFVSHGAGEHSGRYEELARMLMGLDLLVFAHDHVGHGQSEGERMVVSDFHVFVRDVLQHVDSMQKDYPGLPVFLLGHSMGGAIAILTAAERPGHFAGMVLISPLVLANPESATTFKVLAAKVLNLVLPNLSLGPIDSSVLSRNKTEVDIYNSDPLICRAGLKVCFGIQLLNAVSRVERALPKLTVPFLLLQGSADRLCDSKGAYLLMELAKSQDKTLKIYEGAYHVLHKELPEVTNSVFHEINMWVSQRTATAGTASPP
Procedure: Hydrolysis experiment involving Monoacylglycerol lipase (MAGL) with and without a MAGL inhibitor. A commercially available Monoacylglycerol (MAGL) kit from Cayman (Cat #705192) was used for the hydrolysis experiment. The hydrolysis was carried out in Eppendorf tubes by adding together 300 μL of a 10 mM Tris-HCl buffer (pH 7.2, 1 mM EDTA), 20 μL of DMSO, and 20 μL of the human recombinant MAG-lipase. […] The Eppendorf tubes were gently inverted to mix the components and then placed in a 37° C. incubator. A 25 μl, sample was withdrawn at each of the following time points: 0, 5, 10, 15, and 30 min. […] In a separate experiment, the hydrolysis was then repeated in the presence of a MAGL inhibitor (compound JZL184, supplied with the commercially available MAGL kit). Eppendorf tubes were charged with 300 μL of a 10 mM Tris-HCl buffer (pH 7.2, 1 mM EDTA), 20 μL of a […] solution of JZL184 in DMSO in order to make a 5 μM final concentration, and 20 μL of the human recombinant MAG-lipase. […] The Eppendorf tubes were gently inverted to mix the components and then placed in a 37° C. incubator.

NFκB = experiment: NFκB-driven luciferase reporter assay in LPS-challenged RAW 264.7 macrophages; type: cell-based; details: Mus musculus, RAW264.7; RAW 264.7, LPS 200 ng/mL; linked bioactive; read-out: IC50 in an NFkB assay
Procedure: RAW 264.7 cells transfected with an NFκB-driven luciferase reporter were plated in 96 well plates. Cells were treated with Vehicle (0.1% ethanol) or test compounds for 2 hours. As a positive control for inhibition of NFκB signaling, 6 wells were treated with […]. Cells were then challenged with 200 ng/mL LPS for 3 hours in the presence of test compounds. A subset of wells treated with vehicle remained unstimulated with LPS to determine the floor signal of the assay. NFκB driven luciferase activity was developed by addition of BriteLite luciferase kit (PERKIN ELMER®) and measured using a Victor V plate reader. NFκB activity (luciferase activity) for each treatment was normalized to Vehicle wells treated with LPS (% NFκB Response).

LTB4 = LTB4 assay (HTRF) in differentiated HL-60 cells stimulated with A23187; type: cell-based; details: Homo sapiens, linked bioactive
Procedure: The LTB4 assay was conducted using a commercial kit (CISBIO, Bedford, Mass.) in HL-60 cells. HL-60 cells were maintained in IMEM supplemented with 20% serum in 37° C. in 5% CO2. Media was changed 2 times a week and cells kept at a density of 2×10^5 to 1×10^6 cells/ml.
Before the experiment cell culture media was changed to 10% serum and HL-60 cells were differentiated for 3 days in 1.3% DMSO. On day 3 cells were concentrated 2 times in the DMSO containing media and 1 ml cell suspension/well plated in 24-well plates. BSA controls or CAT compounds prepared in 1% BSA from an ethanol or DMSO stock solution were added to the wells and the cell were incubated for 21 hours. Next day, cells were transferred to Eppendorf tubes centrifuged at 300×g and rinsed once in DPBS. Cells were re-suspended in 300 μl DPBS containing 2% FBS (assay buffer), and 80 μl/well was plated in 96-well plates (black sides, clear bottom). Some cells were pre-incubated with 10 μM NDGA, a LOX inhibitor. To initiated LTB4 secretion, cells were stimulated with the calcium ionophore A23187 (5 μM) for 15 min. […] LTB4 content in the supernatant was assessed by a homogeneous time resolved fluorescence (HTRF) LTB4 assay from CISBIO, in a 384-well plate format. […] Cell viability was determined in the 96-well plate by CellTiter-Glo (Promega, Madison, Wis.).

In the case of `CC/C=C\C/C=C\C/C=C\C/C=C\C/C=C\C/C=C\CCC(=O)Nc1ccc(O)c(C(=O)O)c1` [II-1, 5-(4Z,7Z,10Z,13Z,16Z,19Z)-docosa-4,7,10,13,16,19-hexaenamido-2-hydroxybenzoic acid], the “hydrolysis using human recombinant MAG-lipase (remaining compound)” value ([1]; 5 μM final concentration, 37° C., 0-30 min, no inhibitor) is reported as “time-dependent hydrolysis” and the IC50 (NFκB) is reported as 40 to 50 µM.

`O=C(Oc1ccc([N+](=O)[O-])cc1)N1CCC(C(O)(c2ccc3c(c2)OCO3)c2ccc3c(c2)OCO3)CC1` [JZL184, reference compound] was tested, and the “effect of MAGL inhibitor on rate of hydrolysis of compound II-1” value ([1]; 5 μM inhibitor) was “reduced significantly”.

`CC/C=C\C/C=C\C/C=C\C/C=C\C/C=C\C/C=C\CCC(=O)NCCNC(=O)C(C)c1ccc(CC(C)C)cc1` (centres unmarked) [VIIa-1, (4Z,7Z,10Z,13Z,16Z,19Z)-N-(2-(2-(4-isobutylphenyl)propanamido)ethyl)docosa-4,7,10,13,16,19-hexaenamide] gave an IC50 (LTB4) of 2200 nM.

Compound `CC/C=C\C/C=C\C/C=C\C/C=C\C/C=C\C/C=C\CCC(=O)N[C@@H](CCCCNC(=O)C(C)c1ccc(CC(C)C)cc1)C(=O)O` (stereo partly drawn) [VIIa-2, (2S)-2-((4Z,7Z,10Z,13Z,16Z,19Z)-docosa-4,7,10,13,16,19-hexaenamido)-6-(2-(4-isobutylphenyl)propanamido)hexanoic acid] has an IC50 (LTB4) of 1600 nM.
